What was measured:
human PTH1R = molecular target: T1, human PTH1R (Homo sapiens, UniProt Q03431); assay: In vitro cAMP signal activity via the human PTH1R (HKRK-B7 cells); type: cell-based; conditions: human PTH(1-34) at 100 nM = 100%; for EC20: concentration at 20% cAMP signaling activity
T1 construct: expressed in transfected cells; host or cells: HKRK-B7 (LLC-PK1 porcine kidney cells stably expressing human PTH1R)
T1 sequence (Q03431 27-593): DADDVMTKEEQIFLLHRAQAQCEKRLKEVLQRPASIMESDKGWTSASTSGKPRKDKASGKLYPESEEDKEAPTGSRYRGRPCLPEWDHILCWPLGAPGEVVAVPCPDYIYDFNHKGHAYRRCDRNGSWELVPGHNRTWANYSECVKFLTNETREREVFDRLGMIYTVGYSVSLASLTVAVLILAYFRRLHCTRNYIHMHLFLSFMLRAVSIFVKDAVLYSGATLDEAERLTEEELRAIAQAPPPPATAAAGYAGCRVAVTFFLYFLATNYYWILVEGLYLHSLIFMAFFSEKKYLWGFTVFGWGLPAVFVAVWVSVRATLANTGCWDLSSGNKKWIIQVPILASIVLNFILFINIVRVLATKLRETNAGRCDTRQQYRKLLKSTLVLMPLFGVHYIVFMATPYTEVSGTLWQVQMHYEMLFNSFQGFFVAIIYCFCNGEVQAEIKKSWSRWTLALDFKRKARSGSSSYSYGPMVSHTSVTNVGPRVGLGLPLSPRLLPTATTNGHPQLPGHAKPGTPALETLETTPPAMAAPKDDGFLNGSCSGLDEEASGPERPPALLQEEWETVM
Protocol: Human PTH(1-34) and calcitonin were purchased from Peptide Institute, Inc. (Osaka, Japan), dissolved in 10 mM acetic acid to 1 mM and stored in a −80° C. freezer.
Cells were cultured in Dulbecco's modified Eagle's medium (DMEM) supplemented with 10% fetal bovine serum (Hyclone), 100 units/ml penicillin G and 100 μg/ml streptomycin sulfate (Invitrogen Corp) at 37° C. in a humidified atmosphere containing 5% CO2.
cAMP signal transduction analysis utilized LLC-PK1 cells not expressing the PTH1R, and HKRK-B7 cells, that is, LLC-PK1 cells overexpressing the human PTH1R at 9.5×10^5 receptors/cell (Takasu et al., J. Bone. Miner. Res. 14:11-20, 1999).
HKRK-B7 or LLC-PK1 cells were seeded into a 96-well plate at 1×10^5 cells/well and incubated overnight. On the following day, 50 μl of cAMP assay buffer (DMEM, 2 mM IBMX, 0.2 mg/ml bovine serum albumin, 35 mM Hepes-NaOH, pH 7.4) containing human PTH(1-34) or each compound was added and the plate was placed in a 37° C. incubator. The cells were incubated for 20 minutes. After removing the medium, the cells were washed with 100 μl of cAMP assay buffer once. The plate was placed on dry ice powder to freeze the cells and then removed from the dry ice. The cells were lysed with 40 μl of 50 mM HCl and frozen again on dry ice. The amount of intracellular cAMP produced was measured using a commercially available cAMP EIA kit (Biotrack cAMP EIA system, GE health care).
Analyses were performed using a variable gradient S-shaped dose-response curve equation.

rat hepatocyte = assay: Metabolic stability using rat hepatocyte; type: in vitro ADME
Protocol: Liver cells were prepared from the liver of rats (SD, female) by a collagenase perfusion method. A compound of the Reference Examples or a Comparative Example was added, and this was incubated at 37° C. for a specified amount of time, followed by addition of a reaction-stopping solution. The concentration of the parent compound at each reaction time was measured using LC/MS/MS, and inherent clearance (μL/10^6 cells/min) was calculated from the slope of the reaction time versus residual rate.
• Cell concentration: 1×10^6 cells/mL • Compound concentration: 1 μM • Medium: Williams' medium E • Reaction time: 0, 15, 30, 60, 120, and 240 minutes • Reaction-stopping solution: acetonitrile/2-propanol (4/6, v/v)

TPTX rat = assay: Calcemic action in the TPTX rat model; type: in vivo; conditions: TPTX rats, 30 mg/kg oral; for change of serum Ca concentration from the Pre-value (in words): up to 24 hours after administration
Protocol: Four-week old female Crl:CD(SD) rats were obtained from Charles River Japan (Atsugi Breeding Center), and were acclimated to standard laboratory conditions of 20-26° C. and 35-75% humidity for one week. The rats were given tap water and were fed ad libitum with standard rodent chow (CE-2) (CLEA Japan, Inc.) containing 1.1% calcium, 1.0% phosphoric acid, and 250 IU/100 g of vitamin D3.
TPTX was performed on five-week old rats. Some of the individuals were subjected to sham operation (Sham). Individuals whose serum Ca concentration was less than 8 mg/dL on four days after the operation were selected for use as TPTX rats. On five days after the operation, the rats were assigned to eight TPTX groups and one Sham group (n=5, each group) based on their body weight and serum Ca concentration measured on four days after the operation. The solvent alone was orally administered to the Sham group and the TPTX-Vehicle group at a volume of 10 mL/kg. Each test article was orally administered individually to each TPTX test article group by dissolving it in a solvent at a dose of 30 mg/10 mL/kg. The solvent composition was 10% dimethylsulfoxide (Wako Pure Chemical Industries, Ltd.), 10% Cremophor EL (Sigma-Aldrich Japan LLC), 20% hydroxypropyl-β-cyclodextrin (Nihon Shokuhin Kako Co., Ltd.), glycine (Wako Pure Chemical Industries, Ltd.); and the pH was adjusted to 10. Immediately before administration of each sample, Pre-blood collection was performed, and blood collection was carried out at 2, 6, 10, and 24 hours after administration to measure the serum Ca concentration. Each blood collection was carried out from the jugular vein under isoflurane inhalation anesthesia.
Serum Ca measurement: Serum obtained by centrifugation from the collected blood was measured by using an automatic analyzer TBA-120FR (Toshiba Medical Systems Corporation).
For statistical analysis of the animal studies, data are shown as mean±standard error (SE). Statistical analysis were performed by unpaired test of the SAS Preclinical Package (Ver. 5.00.010720, SAS Institute Japan, Tokyo, Japan).

SMILES	EC20 (human PTH1R)	rat hepatocyte metabolic stability compared to Comparative Examples 1, 2, 3, 5, and 6 (in words) (rat hepatocyte)	achievement of the therapeutic target range of serum Ca concentration of 7.6 to 8.8 mg/dL (TPTX rat)	change of serum Ca concentration from the Pre-value (in words) (TPTX rat)	EC50 (human PTH1R; concentration at 50% cAMP signaling activity)
Cc1cc(N2C(=O)NC(=O)C2(C)C)cc(C)c1CCS(=O)(=O)N1CCC2(CC1)N=C(c1ccc(OC(F)(F)F)c(F)c1)NC2=O [Compound 4, 1-(4-(2-((2-(3-fluoro-4-(trifluoromethoxy)phenyl)-4-oxo-1,3,8-triazaspiro[4.5]deca-1-en-8-yl)sulfonyl)ethyl)-3,5-dimethylphenyl)-5,5-dimethylimidazolidine-2,4-dione]	1.6 µM	increased	–	–	–
Cc1cc(N2C(=O)NC(=O)C2(C)C)cc(C)c1CCS(=O)(=O)N1CCC2(CC1)N=C(c1ccc(F)c(OC(F)(F)F)c1)NC2=O [Compound 1, 1-(4-(2-((2-(4-fluoro-3-(trifluoromethoxy)phenyl)-4-oxo-1,3,8-triazaspiro[4.5]deca-1-en-8-yl)sulfonyl)ethyl)-3,5-dimethylphenyl)-5,5-dimethylimidazolidine-2,4-dione]	1.3 µM	–	could not be achieved	smaller positive changes from the Pre-value	–
Cc1cc(N2C(=O)NC(=O)C2(C)C)cc(C)c1CCS(=O)(=O)N1CCC2(CC1)N=C(c1ccc3c(c1)OC(F)(F)O3)NC2=O [Compound 5, 1-(4-(2-((2-(2,2-difluorobenzo[d][1,3]dioxol-5-yl)-4-oxo-1,3,8-triazaspiro[4.5]deca-1-en-8-yl)sulfonyl)ethyl)-3,5-dimethylphenyl)-5,5-dimethylimidazolidine-2,4-dione]	1.7 µM	increased	–	–	–
Cc1cc(N2C(=O)NC(=O)C2(C)C)cc(C)c1CCS(=O)(=O)N1CCC2(CC1)N=C(c1ccc(F)c(C(F)(F)F)c1)NC2=O [Compound 3, 1-(4-(2-((2-(4-fluoro-3-(trifluoromethyl)phenyl)-4-oxo-1,3,8-triazaspiro[4.5]deca-1-en-8-yl)sulfonyl)ethyl)-3,5-dimethylphenyl)-5,5-dimethylimidazolidine-2,4-dione]	1.5 µM	–	–	–	7.2 µM
CC[C@H]1CC[C@H](C2=NC3(CCN(S(=O)(=O)CCc4ccc(N5C(=O)NC(=O)C5(C)C)cc4C)CC3)C(=O)N2)CC1 [Comparative Example 6, reference compound]	3.6 µM	–	–	–	–
Cc1cc(N2C(=O)CNC2=O)cc(C)c1CCS(=O)(=O)N1CCC2(CC1)N=C(c1ccc(F)c(C(F)(F)F)c1)NC2=O [Comparative Example 3, reference compound]	2.0 µM	–	–	–	–
CC[C@H]1CC[C@H](C2=NC3(CCN(S(=O)(=O)CCc4ccc(N5C(=O)NC(=O)C5C)cc4C)CC3)C(=O)N2)CC1 (stereo partly drawn) [Comparative Example 5, reference compound]	3.1 µM	–	–	–	–
Cc1cc(N2C(=O)NC(=O)C2(C)C)cc(C)c1CCS(=O)(=O)N1CCC2(CC1)N=C(c1cccc(Br)c1)NC2=O [Compound 2, 1-(4-(2-((2-(3-bromophenyl)-4-oxo-1,3,8-triazaspiro[4.5]deca-1-en-8-yl)sulfonyl)ethyl)-3,5-dimethylphenyl)-5,5-dimethylimidazolidine-2,4-dione]	2.4 µM	increased	–	–	–
CCC1CCC(C2=NC3(CCN(S(=O)(=O)CCc4ccc(N5CC(=O)NC5=O)cc4C)CC3)C(=O)N2)CC1 (stereo not drawn) [Comparative Example 4, reference compound]	>505 µM	–	–	–	–
Cc1cc(N2C(=O)NC(=O)C2(C)C)cc(C)c1CCS(=O)(=O)N1CCC2(CC1)N=C(c1cccc(C(F)(F)F)c1)NC2=O [Compound 6, 1-(3,5-dimethyl-4-(2-((4-oxo-2-(3-(trifluoromethyl)phenyl)-1,3,8-triazaspiro[4.5]deca-1-en-8-yl)sulfonyl)ethyl)phenyl)-5,5-dimethylimidazolidine-2,4-dione]	2.0 µM	increased	achieved the therapeutic target range	large positive changes from the Pre-value	–
Cc1cc(N2C(=O)CNC2=O)cc(C)c1CCS(=O)(=O)N1CCC2(CC1)N=C(c1cccc(OC(F)(F)F)c1)NC2=O [Comparative Example 2, reference compound]	3.1 µM	–	could not be achieved	smaller positive changes from the Pre-value	–
Cc1cc(N2C(=O)NC(=O)C23CCN(C)CC3)cc(C)c1CCS(=O)(=O)N1CCC2(CC1)N=C(c1ccc(OC(F)(F)F)cc1)NC2=O [Compound 9, 1-(3,5-dimethyl-4-(2-((4-oxo-2-(4-(trifluoromethoxy)phenyl)-1,3,8-triazaspiro[4.5]deca-1-en-8-yl)sulfonyl)ethyl)phenyl)-8-methyl-1,3,8-triazaspiro[4.5]decane-2,4-dione]	2.6 µM	increased	–	–	–

— US9993462B2, “Hydantoin derivative-containing pharmaceutical composition” (Chugai Seiyaku Kabushiki Kaisha, priority 2014, dated 2018)
